# Laboratory results from US11643393B2, “Integrin antagonists” (The General Hospital Corporation, priority 2018, dated 2023).
# “Also recorded” adds a separate entry of the source. Like-named read-outs stand apart in the source and are kept apart here. Positions of bridges follow the written chain, without caps; N, C: chain ends. Non-standard residues stand in square brackets, D forms with d. Residues, ends and D or L forms follow the SMILES beside them. hArg = N=C(N)NCCCC[C@H](N)C(=O)O; Mpa = O=C(O)CCS
# Tests used:
# [1] = molecular target: T1, αIIbβ3 (Homo sapiens, UniProt P05106+P08514); assay: Displacement of labeled Hr10 binding to inactive or PT-25-activated αIIbβ3-K562 cells (FACS); set-up: expressed in transfected cells; host or cells: K562; conditions: for IC50: Alexa488-labeled Hr10, 1 mM Mg2+ and Ca2+
# T1 sequence (P08514 32-887 limits assumed): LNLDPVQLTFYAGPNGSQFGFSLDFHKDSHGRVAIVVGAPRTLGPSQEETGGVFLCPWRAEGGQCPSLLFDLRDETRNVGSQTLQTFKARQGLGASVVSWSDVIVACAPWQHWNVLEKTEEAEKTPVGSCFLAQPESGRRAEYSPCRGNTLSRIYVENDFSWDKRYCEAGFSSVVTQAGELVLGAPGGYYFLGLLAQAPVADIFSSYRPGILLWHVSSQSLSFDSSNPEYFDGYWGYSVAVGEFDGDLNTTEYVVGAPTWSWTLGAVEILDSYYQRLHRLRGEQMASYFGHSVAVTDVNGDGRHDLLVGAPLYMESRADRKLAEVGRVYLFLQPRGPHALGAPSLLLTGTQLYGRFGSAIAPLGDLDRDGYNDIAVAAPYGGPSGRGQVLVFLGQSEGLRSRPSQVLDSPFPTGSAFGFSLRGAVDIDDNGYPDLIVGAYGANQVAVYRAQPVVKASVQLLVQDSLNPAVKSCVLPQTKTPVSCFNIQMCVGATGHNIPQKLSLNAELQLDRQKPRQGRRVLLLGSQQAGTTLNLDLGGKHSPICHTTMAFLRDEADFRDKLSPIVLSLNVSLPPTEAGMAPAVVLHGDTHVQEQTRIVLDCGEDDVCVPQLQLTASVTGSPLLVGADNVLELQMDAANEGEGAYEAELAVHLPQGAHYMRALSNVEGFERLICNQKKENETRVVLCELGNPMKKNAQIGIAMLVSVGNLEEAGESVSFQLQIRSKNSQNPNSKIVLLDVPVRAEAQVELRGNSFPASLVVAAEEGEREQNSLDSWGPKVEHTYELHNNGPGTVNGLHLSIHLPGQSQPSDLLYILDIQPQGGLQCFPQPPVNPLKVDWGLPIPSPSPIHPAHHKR
# T1 sequence (P08514 891-1039 partner limits assumed): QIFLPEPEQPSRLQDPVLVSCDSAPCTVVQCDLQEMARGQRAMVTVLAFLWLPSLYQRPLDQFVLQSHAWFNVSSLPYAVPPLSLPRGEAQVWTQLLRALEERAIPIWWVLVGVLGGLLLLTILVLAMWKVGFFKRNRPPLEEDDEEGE
# T1 sequence (P05106 27-788): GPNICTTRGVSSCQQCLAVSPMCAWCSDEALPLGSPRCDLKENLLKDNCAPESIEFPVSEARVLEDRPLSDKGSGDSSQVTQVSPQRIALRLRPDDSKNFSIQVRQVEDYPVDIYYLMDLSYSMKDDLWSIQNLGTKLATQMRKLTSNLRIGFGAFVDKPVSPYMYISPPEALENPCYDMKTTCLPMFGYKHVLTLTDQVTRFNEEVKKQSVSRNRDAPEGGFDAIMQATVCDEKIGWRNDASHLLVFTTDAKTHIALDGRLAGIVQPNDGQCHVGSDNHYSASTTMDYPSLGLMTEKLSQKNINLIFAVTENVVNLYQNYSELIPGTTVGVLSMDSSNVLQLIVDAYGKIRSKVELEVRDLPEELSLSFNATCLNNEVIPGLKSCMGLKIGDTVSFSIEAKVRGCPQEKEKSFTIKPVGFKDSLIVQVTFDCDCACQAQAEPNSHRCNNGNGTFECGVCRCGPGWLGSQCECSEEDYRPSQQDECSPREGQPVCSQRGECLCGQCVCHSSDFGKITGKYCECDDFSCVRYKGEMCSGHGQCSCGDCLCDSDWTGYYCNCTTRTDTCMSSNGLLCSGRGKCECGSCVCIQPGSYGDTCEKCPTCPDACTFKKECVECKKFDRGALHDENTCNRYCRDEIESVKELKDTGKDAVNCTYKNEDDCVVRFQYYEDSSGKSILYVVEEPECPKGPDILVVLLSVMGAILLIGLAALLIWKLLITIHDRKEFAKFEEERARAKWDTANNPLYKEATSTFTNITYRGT
# Experimental: […] Cells were washed, fixed in 2% paraformaldehyde and analyzed by flow cytometry. Ligand binding was expressed as […] of cells in the absence of competitor ligands. Mean and SD from three independent experiments were calculated, and compared using Student's t-test.
# [2] = test system: human platelet-rich plasma (PRP); assay: Thrombin-induced clot retraction; format: cell-based; conditions: for effect on clot retraction induced by α-thrombin: FIG. 5, tirofiban 1.5 μM, m-tirofiban 15 μM, α-thrombin 0.5 unit/mL; for kinetics of thrombin-induced clot retraction: FIG. 6E, three experiments, vs buffer control
# Experimental: 750 μL of Tyrode's buffer supplemented with inhibitor was mixed in a glass culture tube with 200 μL of PRP and 5 μL red blood cells. Clotting was initiated by addition of 50 μL thrombin at 10 units/ml in saline and a sealed Pasteur pipette secured in the tube center. Digital photographs of the experiment were taken at 15-minute intervals over 2 hours. Images were analyzed with ImageJ software to determine the area occupied by the clot and plasma. Plots of the relative areas and linear regressions were performed with SigmaPlot (Systat Software, San Jose, Calif.).
# No ligands were added to the control (FIG. 5C) tube. Photographs were taken immediately after thrombin addition (FIG. 5A) and at the end of the reaction (FIG. 5B). Clot retraction around the central glass rod placed in each glass test tube before thrombin addition is shown. 5 μL of red blood cells were added per 1 mL reaction to enhance the color contrast for photography.
# Clot retraction normally helps secure hemostasis in vivo as evidenced by increased bleeding in mice with impaired clot retraction (see e.g., Leon et al, Blood 110, 3183-3191, doi: 10.1182/blood-2007-03-080184 (2007)), or in recipients of any of the three anti-αIIbβ3 drugs (see e.g., Tutwiler et al, Biophys. J. 112, 714-723 (2017); Osdoit et al, J. Biol. Chem. 276, 6703-6710 (2001); Haling et al, Blood 117, 1719-1722 (2011)). The effects of Hr10 and eptifibatide on thrombin-induced clot retraction in fresh human platelet-rich plasma (PRP) (see e.g., Tucker et al, Methods Mol. Biol. 788, 101-107 (2012)) were compared. The kinetics of clot retraction were determined from quantification of serial images of the reaction acquired every 15 minutes for the 2-hour duration of the assay. […] Thrombolysis, 15, 71-80 (2003).
# [3] = molecular target: T1, αIIbβ3; assay: Displacement of labeled fibrinogen binding to αIIbβ3-K562 cells (flow cytometry); set-up: expressed in transfected cells; host or cells: K562
# Experimental: For ligand binding competition studies, 100 μL of PT-25-activated αIIbpβ3-K562 (1×10^6) were incubated for 30 minutes at RT with serially diluted concentrations of Hr10, hFN10, or eptifibatide in the presence of 0.5 μM Alexa647-conjugated FB. Cells were washed, fixed in 2% paraformaldehyde and analyzed by flow cytometry. Ligand binding was expressed as […] of cells in the absence of competitor ligands. Mean and SD from three independent experiments were calculated, and compared using Student's t-test.
# [4] = test system: human platelets; assay: Agonist-induced platelet aggregation in whole human blood (impedance, Chrono-Log 700); format: cell-based; conditions: for IC50: Homo sapiens, Platelet
# Experimental: (§1) Platelet aggregation and ATP secretion in whole blood were performed in a Chrono-Log model 700 two-channel lumi-aggregation system following the manufacturer's instructions. Blood was drawn directly into 3.2% sodium citrate from healthy volunteers, and blood was used within 3 hours. None of the subjects were taking any medications for at least 10 days prior. For impedance aggregation measurements, 0.5 mL of blood was mixed with 0.5 mL physiologic saline supplemented with inhibitors and incubated at 37° C. for 5 minutes without stirring. Measurements were performed with stirring at 1,200 rpm at 37° C. Values for each data point represent impedance measurements following application of agonist integrated over 5 minutes. Data points for an individual dose curve were serially collected from a single draw and analyzed with SigmaPlot (Systat Software, San Jose, Calif.) using a least-square fit to a logistic curve and the IC50 value determined from the fitted parameter. ATP secretion proceeded similarly except that 0.45 mL of whole blood were added to 0.45 mL of saline supplemented with various concentrations of Hr10 or eptifibatide to produce the desired concentration at 1.0 mL. Following incubation for 5 minutes at 37° C., 100 μL of Chrono-lume reagent was added and aggregation initiated. The luminescence signal was quantified with a non-aggregated sample supplemented with an ATP standard.
# Platelet aggregation was measured in whole blood by impedance increase with a Chrono-log model 700 according to the manufacturer's protocol. Citrated whole blood was diluted with an equal volume of physiologic saline (Sigma) and incubated for 5 min at 37° C. without stirring. Inhibitors were added to final concentration and the cuvette stirred at 1,200 rpm. Following establishment of stable baseline, ADP (20 μM) was added and tracings recorded for 6 min. The extent of aggregation was determined as the integrated impedance over 5 min.
# [5] = molecular target: T1, αIIbβ3; assay: Binding of conformation-sensitive mAbs AP5 / LIBS-1 to human platelets; format: cell-based; conditions: for induction of AP5 epitope expression: tirofiban 150 nM
# [6] = test system: vWF^RH/RH NSG mice infused with human platelets; assay: Cremaster laser-induced arteriolar injury thrombosis in humanized mice; format: in vivo; conditions: eptifibatide 5 μg/mouse, Hr10 60 μg/mouse (equimolar), infused 5 min prior to injury; FIG. 13A
# Experimental: Intravital microscopy was performed as previously described (see e.g., Celi et al, J. Thromb. Haemost. 1, 60-68 (2003); and Neyman et al, Blood, 112, 1101-1108 (2008)). vWF^RH/RHNSG male mice were studied after being anesthetized using sodium pentobarbital (80 mg/kg) injected intraperitoneally. Mice were maintained under anesthesia with the same anesthetic delivered via a catheterized jugular vein at 5 mg/mL throughout the experiment. The cremaster muscle was surgically exteriorized and continuously superfused with a physiological buffer (PBS containing 0.9 mM CaCl2 and 0.49 mM MgCl2) maintained at 37° C. throughout the entire experiment and equilibrated with a mixture of 95% N2 and 5% CO2. Human platelets, 400 million per mouse, were labeled with mouse anti-human CD41 F(ab′)2 (BD Biosciences) conjugated to Alexa Fluor-488 and infused into the jugular vein, followed by Alexa Fluor-647 rat anti-mouse CD41 F(ab′)2 (Thermo Fisher) to detect endogenous mouse platelets (see e.g., Fuentes et al, J. Clin. Invest. 126, 483-494 (2016)). Vascular injury was induced with an SRS NL100 pulsed nitrogen dye laser (440 nm) focused on the vessel wall through the microscope objective. […] Intensity of the fluorescent signal was used to measure incorporated platelets (see e.g., Neyman et al, Blood 112, 1101-1108 (2008). Eight injuries were made in each of four mice in each group.
# [7] = molecular target: T2, αIIbβ3 on resting platelets (Homo sapiens, UniProt P05106+P08514); conditions: Schror & Weber 2003, read-out: affinity of eptifibatide to αIIbβ3 on resting platelets (kD); cited from earlier work
# T2 construct: host or cells: resting platelets
# T2 sequence (P08514 32-887 limits assumed): as the sequence (P08514 32-887 limits assumed) above
# T2 sequence (P08514 891-1039 partner limits assumed): as the sequence (P08514 891-1039 partner limits assumed) above
# T2 sequence (P05106 27-788): as the sequence (P05106 27-788) above
# [8] = test system: human platelets; assay: ADP-induced ATP secretion from dense granules in whole blood; format: cell-based; conditions: 1.5 μM; ADP 20 μM; FIG. 11E
# Experimental: as §1
# [9] = test system: human platelets; assay: ADP-induced surface expression of CD62P and CD63 on platelets; format: cell-based; conditions: 1.5 μM; ADP 20 μM; FIG. 11F
# Experimental: αVβ3-K562 cells or transiently transfected HEK293T (0.5×10^6 in 100 μL WB) were incubated in the absence or presence of unlabeled Hr10 or eptifibatide, each at 1.5 μM, for 20 min at RT. Alexa647-labeled AP5 Fab or unlabeled anti-LIBS-1 (each to 10 μg/mL) were added, and cells incubated for an additional 30 min before washing. Alexa647-labeled AP3 was used for normalization of integrin expression. APC-labeled goat anti-mouse Fc-specific antibody was added to anti-LIBS-1-bound cells for an additional 30 min at 4° C., cells washed and processed for flow cytometry. Binding of anti-CD62 and anti-CD63 mAbs to platelets was performed by incubating (20 min, RT) 100 μL of ligand-pretreated 3.2% sodium citrate whole blood with either Alexa488-labeled mAb (at 10 μg/mL) in the presence of 10 μg/mL Alexa647-labeled anti-CD42b. Cells were fixed in 2% paraformaldehyde and CD62 and CD63 expression was analyzed by flow cytometry in the CD42b positive population.
# [10] = FIG. 6D, M-tirofiban 1.5 μM, human platelets
SMILES,"binding affinity to inactive vs. active αIIbβ3 ([1]; FIGS. 6F-6G, 12C)","IC50 ([1]; active αIIbβ3, read-out: IC50, displacement of labeled Hr10 binding to mAb PT-25-activated αIIbβ3-K562) [nM]","IC50 ([1]; inactive αIIbβ3, read-out: IC50, displacement of labeled Hr10 binding to inactive αIIbβ3-K562) [nM]",effect on clot retraction induced by α-thrombin [2],kinetics of thrombin-induced clot retraction [2],"IC50 ([3]; FIG. 6B, mean±S.E., n=4 experiments, read-out: IC50, displacement of labeled fibrinogen bound to preactivated αIIbβ3-K562) [nM]","IC50 ([4]; read-out: IC50, human platelet aggregation induced by ADP) [nM]",reduction in affinity of M-tirofiban vs. tirofiban ([4]; from fibrinogen displacement and platelet aggregation assays) [fold],"activating conformational changes in αIIbβ3 reported by AP5 binding ([5]; FIG. 4, human platelets in PRP, saturating amounts, absence or presence of 20 μM ADP)","effect on ADP-induced AP5 expression ([5]; FIG. 6D, M-tirofiban 1.5 μM, ADP 5 μM added before or after)","induction of AP5 epitope expression [5, 10]",nascent occlusive thrombus formation at sites of laser-induced arteriolar injury [6],Kd [7] [nM],"kinetics of thrombin-induced clot retraction vs. buffer ([2]; FIGS. 12A-12B, fresh human PRP, 2-hour assay)","IC50 ([3]; FIG. 8C, preactivated αIIbβ3-K562, mean S.E., n=3, read-out: IC50, inhibition of binding of Alexa647-labeled soluble FB to activated αIIbβ3) [nM]","conformational changes in αIIbβ3 reported by binding of mAbs AP5 and LIBS-1 ([5]; FIG. 8D, 1.5 μM, human platelets, absence or presence of 5 μM ADP)",inhibition of ADP-induced ATP secretion from dense granules in whole blood [8] [%],ADP-induced secretion from platelet α-granules (CD62P expression) and lysosomes (CD63 expression) [9],"IC50 ([4]; FIG. 6C, ADP 20 μM, mean±S.E., n=5, three donors, read-out: IC50, human platelet aggregation induced by ADP) [nM]","IC50 ([4]; summary of FIGS. 6B-6C, ADP 20 μM, read-out: Prevention of ADP-induced human platelet aggregation, concentration range) [nM]"
"O=C(N[C@@H](Cc1ccc(OCCCCC2CCNCC2)cc1)C(=O)O)c1nc2ccccc2o1 [M-tirofiban, OC(═O)[C@H](CC1═CC═C(OCCCCC2CCNCC2)C═C1)NC(═O)C1═NC2═C(O1)C ═CC═C2]",equivalent binding affinities to inactive and active,247 ± 29.3,257 ± 88,reduced clot retraction minimally,did not; also recorded: not different between buffer control (contr.) and M-tirofiban,30.9 ± 3.3,18.5 ± 5.4,~10,did not induce the activating shape-shifts,suppressed ADP-induced AP5 expression,did not induce AP5 expression; also recorded: No significant differences were found between B and M,,,,,,,,,
N=C(N)NCCCC[C@@H]1NC(=O)CCSSC[C@@H](C(N)=O)NC(=O)[C@@H]2CCCN2C(=O)[C@H](Cc2c[nH]c3ccccc23)NC(=O)[C@H](CC(=O)O)NC(=O)CNC1=O [eptifibatide] ([Mpa][hArg]GDWPC-NH2; disulfide 1-7),,,,,,,,,,,,completely preventing nascent occlusive thrombus formation,120,clot retraction was significantly reduced vs buffer; also recorded: significantly blocked clot retraction,73.2 ± 7,induced conformational changes in αIIbβ3,60±200,did not significantly alter,,
CCCCS(=O)(=O)N[C@@H](Cc1ccc(OCCCCC2CCNCC2)cc1)C(=O)O [tirofiban],,,,completely blocked clot retraction,effectively blocked thrombin-induced clot retraction,,,,,,induced expression of the AP5 epitope,,,,,,,,1.41 ± 0.23,1.5 to 2
